Reference: US9271978B2 (Zenith Epigenetics Corp., priority 2012, dated 2016)

Key:
Design in all cases: key: Active: Compounds with an IC50 value less than 30 μM were deemed to be active.; Not Active: Compounds with an IC50 value less than 30 μM were deemed to be active
c-myc = assay: Inhibition of c-myc expression in MV4-11 cells (mRNA, real-time PCR); format: cell-based; settings: Human AML MV4-11 cells, 3 h incubation
Procedure: MV4-11 cells (2.5×10^4 cells) were plated in 96 well U-bottom plates with test compound or DMSO (0.1%), and incubated for 3 h at 37° C. Cells were then harvested by centrifugation, lysed, and mRNA was isolated using the mRNA catcher plus kit (Invitrogen). Reverse transcription of the mRNA and duplex amplification of the c-myc and cyclophilin cDNAs was performed using the RNA Ultrasense kit (Invitrogen) and a ViiA7 real-time PCR machine (Applied Biosystems). IC50 values were determined from a dose response curve.

[1] = molecular target: T1, Brd4 bromodomain 1 (BRD4(1)) (Homo sapiens, UniProt O60885); assay: Inhibition of tetra-acetylated histone H4 binding to Brd4 bromodomain 1 (TR-FRET); settings: tetra-acetylated histone H4 peptide, active = IC50 <30 μM
T1 construct: Illustrative results with the first bromodomain of Brd4; made in house; host or cells: E. coli BL21 (DE3)
Summary of the method: (§1)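 N-terminally His-tagged bromodomains (200 nM), expressed in E. coli, were incubated with biotinylated tetra-acetylated histone H4 peptide (25-50 nM), Eu-cryptate streptavidin and XL665 anti-His antibody in HEPES pH 7.4 buffer with KF, 0.2% DMSO, 2 h at room temperature. Inhibition read as decreased 665/620 nm TR-FRET; IC50 from dose-response curves.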

[2] = system: human AML MV-4-11 (CRL-9591) cells; assay: Inhibition of cell proliferation in MV4-11 cells; format: cell-based; settings: human AML MV-4-11 cells, 72 h; active = IC50 <30 μM
Procedure: MV4-11 cells: 96-well plates were seeded with 5×10^4 cells per well of exponentially growing human AML MV-4-11 (CRL-9591) cells and immediately treated with two-fold dilutions of test compounds, ranging from 30 μM to 0.2 μM. Triplicate wells were used for each concentration, as well as a media only and three DMSO control wells. The cells and compounds were incubated at 37° C., 5% CO2 for 72 h before adding 20 μL of the CellTiter Aqueous One Solution (Promega) to each well and incubating at 37° C., 5% CO2 for an additional 3-4 h. The absorbance was taken at 490 nm in a spectrophotometer and the percentage of proliferation relative to DMSO-treated cells was calculated after correction from the blank well. IC50 were calculated using the GraphPad Prism software.

[3] = molecular target: T2, second bromodomain of Brd2 (BRD2(2)) (Homo sapiens, UniProt P25440); assay: Inhibition of tetra-acetylated histone H4 binding to Brd2 bromodomain 2 (TR-FRET); settings: tetra-acetylated histone H4 peptide, active = IC50 <30 μM
T2 construct: made in house; host or cells: E. coli BL21 (DE3)
Summary of the method: as §1

hIL-6 mRNA = assay: Inhibition of hIL-6 mRNA transcription in U937 cells; format: cell-based, human; settings: LPS stimulation, active = IC50 <30 μM
Procedure: In this example, hIL-6 mRNA in tissue culture cells was quantitated to measure the transcriptional inhibition of hIL-6 when treated with a compound of the present disclosure.
A human leukemic monocyte lymphoma cell line (U937) was plated (3.2×10^4 cells per well) in a 96-well plate in […] RPMI-1640 containing 10% FBS and penicillin/streptomycin, and differentiated into macrophages for 3 days in 60 ng/mL PMA ([…]) at 37° C. in 5% CO2 prior to the addition of the compound of interest. The cells were pretreated for 1 h with the test compound prior to stimulation with 1 ug/mL lipopolysaccharide from Escherichia coli. The cells were incubated at 37° C. for 3 h before the cells were harvested. At time of harvest, the spent media was removed from the cells and the cells were rinsed in […] PBS. Cell lysis solution (70 μL) was added the cells in each well and incubated for 5-10 min at room temperature, to allow for complete cell lysis and detachment. mRNA was then prepared using the “mRNA Catcher PLUS plate” (Invitrogen), according to the protocol supplied. After the last wash, as much wash buffer as possible was aspirated without allowing the wells to dry. Elution buffer (E3, 70 μL) was then added to each well. mRNA was then eluted by incubating the mRNA Catcher PLUS plate with Elution Buffer for 5 min at 68° C. and then immediately placing the plate on ice.
The eluted mRNA isolated was then used in a one-step quantitative real-time PCR reaction, using components of the Ultra Sense Kit together with Applied Biosystems primer-probe mixes. Real-time PCR data was analyzed, normalizing the Ct values for hIL-6 to an internal control, prior to determining the fold induction of each unknown sample, relative to the control.

T2 sequence (P25440 344-453 limits assumed): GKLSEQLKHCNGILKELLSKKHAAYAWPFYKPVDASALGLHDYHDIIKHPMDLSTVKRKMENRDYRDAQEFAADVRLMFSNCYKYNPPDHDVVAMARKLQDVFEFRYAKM

SMILES	c-myc activity (IC50 <30 μM) (c-myc)	FRET activity (IC50 <30 μM) BRD4(1) [1]	Cell Proliferation activity (IC50 <30 μM) [2]	FRET activity (IC50 <30 μM) BRD2(2) [3]	IL-6 activity (IC50 <30 μM) (hIL-6 mRNA)
Cc1noc(C)c1-c1ccc(=O)n(Cc2ccccn2)n1 [Example 2, 6-(3,5-Dimethylisoxazol-4-yl)-2-(pyridin-2-ylmethyl)pyridazin-3(2H)-one]	Not Active	Active	Not Active	Active	–
Cc1noc(C)c1-c1ccc(=O)n(Cc2ccsc2)c1 [Example 79, 5-(3,5-Dimethylisoxazol-4-yl)-1-(thiophen-3-ylmethyl)pyridin-2(1H)-one]	Active	Active	–	Active	Active
Cc1noc(C)c1-c1cc(N)c(=O)n(Cc2ccccc2)n1 [Example 250, 4-amino-2-benzyl-6-(3,5-dimethylisoxazol-4-yl)pyridazin-3(2H)-one]	–	Active	Active	–	Active
Cc1ccccc1Cn1cc(-c2c(C)noc2C)ccc1=O [Example 121, 5-(3,5-Dimethylisoxazol-4-yl)-1-(2-methylbenzyl)pyridin-2(1H)-one]	Active	Active	–	Active	Active
CC(=O)Nc1cc(-c2c(C)noc2C)cn(Cc2ccccc2)c1=O [Example 71, N-(1-Benzyl-5-(3,5-dimethylisoxazol-4-yl)-2-oxo-1,2-dihydropyridin-3-yl)acetamide]	Active	Active	–	Active	–
Cc1noc(C)c1-c1cc(N)c(=O)n(Cc2ccc(C#N)c(F)c2)c1 [Example 262, 4-((3-amino-5-(3,5-dimethylisoxazol-4-yl)-2-oxopyridin-1(2H)-yl)methyl)-2-fluorobenzonitrile]	Active	Active	Active	–	–
Cc1noc(C)c1-c1ccc(=O)n(Cc2c(F)cccc2F)n1 [Example 90, 2-(2,6-Difluorobenzyl)-6-(3,5-dimethylisoxazol-4-yl)pyridazin-3(2H)-one]	Not Active	Active	Not Active	Active	–
Cc1noc(C)c1-c1cc(N)c(=O)n(Cc2ccc(Cl)cn2)c1 [Example 255, 3-amino-1-((5-chloropyridin-2-yl)methyl)-5-(3,5-dimethylisoxazol-4-yl)pyridin-2(1H)-one]	Active	Active	Active	–	–
COc1ccc(Cn2cc(-c3c(C)noc3C)ccc2=O)cc1OC [Example 131, 1-(3,4-Dimethoxybenzyl)-5-(3,5-dimethylisoxazol-4-yl)pyridin-2(1H)-one]	–	Active	–	Active	Active
Cc1noc(C)c1-c1ccc(=O)n(Cc2ccccc2C#N)c1 [Example 135, 2-((5-(3,5-Dimethylisoxazol-4-yl)-2-oxopyridin-1(2H)-yl)methyl)benzonitrile]	Active	Active	–	Active	–
COc1ccc(Cn2cc(-c3c(C)noc3C)ccc2=O)cc1 [Example 130, 5-(3,5-Dimethylisoxazol-4-yl)-1-(4-methoxybenzyl)pyridin-2(1H)-one]	–	Active	–	Active	Active
Cc1noc(C)c1-c1ccc(=O)n(Cc2ccc(F)cc2F)c1 [Example 138, 1-(2,4-Difluorobenzyl)-5-(3,5-dimethylisoxazol-4-yl)pyridin-2(1H)-one]	–	Active	–	Active	Active
Cc1cccc(Cn2cc(-c3c(C)noc3C)ccc2=O)n1 [Example 46, 5-(3,5-Dimethylisoxazol-4-yl)-1-((6-methylpyridin-2-yl)methyl)pyridin-2(1H)-one]	–	Active	–	Active	Active
Cc1noc(C)c1-c1ccc(=O)n(C(C)c2ccccc2C(F)(F)F)c1 (centres unmarked) [Example 38, 5-(3,5-Dimethylisoxazol-4-yl)-1-(1-(2-(trifluoromethyl)phenyl)ethyl)pyridin-2(1H)-one]	–	Active	–	Active	Active
Cc1noc(C)c1-c1cc(N)c(=O)n(Cc2ccc(C#N)cc2F)c1 [Example 261, 4-((3-amino-5-(3,5-dimethylisoxazol-4-yl)-2-oxopyridin-1(2H)-yl)methyl)-3-fluorobenzonitrile]	Active	Active	Active	–	–
Cc1noc(C)c1-c1ccc(=O)n(Cc2ccccc2OC(F)(F)F)n1 [Example 39, 6-(3,5-Dimethylisoxazol-4-yl)-2-(2-(trifluoromethoxy)benzyl)pyridazin-3(2H)-one]	–	Active	–	Active	Active
Cc1noc(C)c1-c1ccc(=O)n(Cc2ccc(Cl)cc2F)c1 [Example 139, 1-(4-Chloro-2-fluorobenzyl)-5-(3,5-dimethylisoxazol-4-yl)pyridin-2(1H)-one]	–	Active	–	Active	Active
Cc1cncc(Nc2cc(-c3c(C)noc3C)cn(Cc3ccccc3)c2=O)c1 [Example 246, 1-benzyl-5-(3,5-dimethylisoxazol-4-yl)-3-((5-methylpyridin-3-yl)amino)pyridin-2(1H)-one]	–	Active	Active	–	–
Cc1noc(C)c1-c1cc(C)c(=O)n(Cc2ccncc2)n1 [Example 87, 6-(3,5-Dimethylisoxazol-4-yl)-4-methyl-2-(pyridin-4-ylmethyl)pyridazin-3(2H)-one]	–	Active	Not Active	Active	Not Active
Cc1noc(C)c1-c1ccc(=O)n(Cc2ccccc2Cl)n1 [Example 26, 2-(2-Chlorobenzyl)-6-(3,5-dimethylisoxazol-4-yl)pyridazin-3(2H)-one]	–	Active	Active	Active	Active
